From US6458770B1, “Parenteral formulations comprising carbamazepine or its derivatives” (Novartis AG, priority 1997, dated 2002)

Assay: Solubility of the active agent in water
Type: physicochemical
Conditions: 25° C., pH of 5.8 to 6.0
Procedure: A wide range of container sizes may be employed. Container size may be conveniently categorised as Low-Volume, i.e. 100 ml or less and High-Volume, i.e. above 100 ml and typically 250 ml. […] parenteral formulations could of course be employed but this may require the use of an organic co-solvent or other solubilising aid which is less desirable than a totally water-based formulation.

`NC(=O)N1c2ccccc2CC(O)c2ccccc21` (stereo not shown) [COMPOUND A, 10-hydroxy-10,11-tetrahydrocarbamazepine] gave a solubility in water of 3200 to 4200 µg/mL.
